Measured values as given in patent US20220370416A1, “COMPOUNDS AND METHODS FOR TARGETED DEGRADATION OF KRAS” (Arvinas Operations, Inc., priority 2020, published 2022).

Legend:
HiBit-KRAS^G12C [1] = target: T1, HiBit-KRAS^G12C (Homo sapiens, UniProt P01116, G12C); test: HiBit degradation assay in SW1573 HiBit-KRas^G12C cells; type: cell-based; set-up: expressed in transfected cells; host or cells: SW1573 (clone E6), modified pcDNA3.1 vector, TK promoter; details: 0.5% DMSO, 24 hours; for Dmax: SW1573, SW1573 HiBit-KRas^G12C, read-out: KRas^G12C-HiBiT (SW1573; 0.5% DMSO) Dmax**; for DC50: read-out: KRas^G12C-HiBiT (SW1573; 0.5% DMSO) IC50***
Outline: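 SW1573 cells stably expressing N-terminally HiBit-tagged KRAS G12C, under the TK promoter, were treated 24 h at 37 °C with 10 μM to 20 nM compound in 0.1% or 0.5% DMSO. Residual HiBit luminescence normalised to DMSO and fitted with a 4-parameter model for DC50 and Dmax. Points with ≥50% viability loss (alamar blue) excluded.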

HiBit-KRAS^G12C [2] = target: T1, HiBit-KRAS^G12C; test: HiBit degradation assay in MiaPaCa-2 HiBit-KRas^G12C cells; type: cell-based; details: 0.5% DMSO, 24 hours; for Dmax: MIA PaCa-2, MiaPaCa-2 HiBit-KRas^G12C cells, read-out: KRas^G12C-HiBiT (MiaPaCa; 0.5% DMSO) DMax; for DC50: read-out: KRas^G12C-HiBiT (MiaPaCa; 0.5% DMSO) IC50
Description: Reagents. SW1573 (CRL-2170) and MiaPaCa-2 (CRL-1420) cells were purchased from ATCC. Both cell lines are […] for the G12C mutation in KRAS. SW1573 cells were cultured in DMEM+F12+Glutamax (+Sodium Bicarbonate, +sodium pyruvate, Thermofisher scientific, #10565) supplemented with 10% FBS (Thermofisher scientific, #2060357) and 1% Antibiotic-Antimycotic (Thermofisher scientific, #15240096). MiaPaCa-2 cells were cultured in DMEM+Glutamax media (Thermofisher scientific, #10566) supplemented with 10% FBS (Thermofisher scientific, #2060357) and 1% Antibiotic-Antimycotic (Thermofisher scientific, #15240096). For degradation assays, 384 well plates were purchased from Corning (Corning® CellBIND® 384-well Flat Clear Bottom Black Polystyrene Microplates, Low Flange, #3770). Gambogic acid was purchased from Selleckchem (#S2448). Alamar blue was purchased from Thermofisher scientific (A50101) and used according to manufacturer instructions. The Nano-Glo® HiBit Lytic Detection System and Nano-Glo® HiBit Blotting System were purchased from Promega (#N3050 and #N2410) and used according to manufacturer instructions.
To create the MiaPaCa-2 HiBit-KRAS^G12C cell line, CRISPR-Cas9 was used to insert the HiBit tag onto the N-terminus of one or more of the four endogenous KRAS^G12C alleles. After knock-in of the tag, individual clones were isolated by single cell dilution and screened for HiBit insertion by PCR. Clones containing the HiBit tag were sequenced and one was identified that contained the desired HiBit-KRAS^G12C sequence at one allele while the remaining three KRAS^G12C alleles were unaffected. This line was used for all subsequent studies.
Either SW1573 HiBit-KRas^G12C or MiaPaCa-2 HiBit-KRas^G12C cells were plated at 9000 cells/well in a 384 well plate (Corning #3770). Exemplary heterobifunctional molecules and positive controls were diluted in the appropriate cell media and applied to the plated cells resulting in a final concentration titration of 10 μM to 20 nM in either 0.1% or 0.5% dimethyl sulfoxide (DMSO). Gambogic acid was used as a positive control for cytotoxicity and titrated from 10 μM to 78 nM. All assays were performed in triplicate. Cells were treated with compounds for 24 hours at 37° C. in an incubator containing 5% CO2. Following treatment, alamar blue was used to determine if any compounds led to a loss in cell viability after 24 hours. The 10× alamar blue reagent was added to a final concentration of 1× as recommended by the manufacturer and cells were returned to the incubator for 4 hours. Plates were then allowed to equilibrate to room temperature and fluorescence was measured using a Perkin-Elmer EnVision. After completion of the fluorescence read, the liquid from each well was removed and the cells were washed with PBS. The Nano-Glo® HiBiT detection reagent was prepared according to the manufacturer's instructions and added to each well after the PBS wash was removed. Following incubation at room temperature for 45 minutes, the luminescence was read using the ultra-sensitive luminescence aperture on the Envision instrument.
Fluorescence values from the alamar blue treatment were normalized to the DMSO only control for each compound titration. We hypothesized that compounds that led to a ≥50% loss in cell viability of the KRAS-independent SW1573 HiBit-KRas^G12C cells were likely generally cytotoxic and loss of HiBit-KRAS^G12C signal from these compounds may be due to lower cell number and not specific KRAS^G12C degradation. These points were therefore excluded from the data analysis for degradation. […]

[3] = MiaPaCa-2 HiBit-KRas^G12C cells

T1 sequence (P01116 1-186 isoform P01116-2 G12C limits assumed): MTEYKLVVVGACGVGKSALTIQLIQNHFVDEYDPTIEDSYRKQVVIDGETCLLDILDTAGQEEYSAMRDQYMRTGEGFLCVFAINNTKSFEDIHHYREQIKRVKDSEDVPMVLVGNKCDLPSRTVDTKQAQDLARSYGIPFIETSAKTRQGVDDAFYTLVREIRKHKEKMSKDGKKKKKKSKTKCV

Compound	Dmax (HiBit-KRAS^G12C [1])	DC50 (HiBit-KRAS^G12C [1]; SW1573 HiBit-KRas^G12C)	Dmax (HiBit-KRAS^G12C [2]; maximum degradation)	DC50 (HiBit-KRAS^G12C [2]; [3])	KRas^G12C-HiBiT (SW1573; 0.5% DMSO) Dmax** (HiBit-KRAS^G12C [1]; SW1573 HiBit-KRas^G12C)	KRas^G12C-HiBiT (MiaPaCa; 0.5% DMSO) DMax (HiBit-KRAS^G12C [2]; MiaPaCa-2 HiBit-KRas^G12C cells, maximum degradation)
C=CC(=O)N1CCN(c2nc(OCCN3CCC(COCC(=O)N[C@H](C(=O)N4C[C@H](O)C[C@H]4C(=O)N[C@@H](C)c4ccc(-c5scnc5C)cc4)C(C)(C)C)CC3)nc3c(F)c(-c4cc(O)cc5ccccc45)c(Cl)cc23)C[C@@H]1CC#N (atropisomer, axis not shown) [Compound 110, (2S,4R)-1-[(2S)-2-[2-({1-[2-({6-chloro-4-[(3S)-3-(cyanomethyl)-4-(prop-2-enoyl)piperazin-1-yl]-8-fluoro-7-(3-hydroxynaphthalen-1-yl)quinazolin-2-yl}oxy)ethyl]piperidin-4-yl}methoxy)acetamido]-3,3-dimethylbutanoyl]-4-hydroxy-N-[(1S)-1-[4-(4-methyl-1,3-thiazol-5-yl)phenyl]ethyl]pyrrolidine-2-carboxamide]	–	–	–	–	C (C ≤ 35)	C (C ≤ 35)
C=C(F)C(=O)N1CCN(c2nc(OCCN3CCC4(CC3)CN(c3cc([C@@H](C(=O)N5C[C@H](O)C[C@H]5C(=O)N[C@@H](C)c5ccc(-c6scnc6C)cc5)C(C)C)on3)C4)nc3c(F)c(-c4cc(O)cc5ccccc45)c(Cl)cc23)C[C@@H]1CC#N (atropisomer, axis not shown) [Compound 113, (2S,4R)-1-[(2S)-2-(3-{7-[2-({6-chloro-4-[(3S)-3-(cyanomethyl)-4-(2-fluoroprop-2-enoyl)piperazin-1-yl]-8-fluoro-7-(3-hydroxynaphthalen-1-yl)quinazolin-2-yl}oxy)ethyl]-2,7-diazaspiro[3.5]nonan-2-yl}-1,2-oxazol-5-yl)-3-methylbutanoyl]-4-hydroxy-N-[(1S)-1-[4-(4-methyl-1,3-thiazol-5-yl)phenyl]ethyl]pyrrolidine-2-carboxamide]	–	> 1000 nM	–	> 1000 nM	–	–
C=C(F)C(=O)N1CCN(c2nc(OCCN3CCC(F)(COc4cc([C@@H](C(=O)N5C[C@H](O)C[C@H]5C(=O)N[C@@H](C)c5ccc(-c6ccnn6C)cc5)C(C)C)on4)CC3)nc3c(F)c(-c4cc(O)cc5ccccc45)c(Cl)cc23)C[C@@H]1CC#N (atropisomer, axis not shown) [Compound 118, (2S,4R)-1-[(2S)-2-[3-({1-[2-({6-chloro-4-[(3S)-3-(cyanomethyl)-4-(2-fluoroprop-2-enoyl)piperazin-1-yl]-8-fluoro-7-(3-hydroxynaphthalen-1-yl)quinazolin-2-yl}oxy)ethyl]-4-fluoropiperidin-4-yl}methoxy)-1,2-oxazol-5-yl]-3-methylbutanoyl]-4-hydroxy-N-[(1S)-1-[4-(1-methyl-1H-pyrazol-5-yl)phenyl]ethyl]pyrrolidine-2-carboxamide]	–	100 to 1000 nM	–	> 1000 nM	–	–

Now from value to molecule:

Dmax (HiBit-KRAS^G12C [1])	DC50 (HiBit-KRAS^G12C [1]; SW1573 HiBit-KRas^G12C)	Dmax (HiBit-KRAS^G12C [2]; maximum degradation)	DC50 (HiBit-KRAS^G12C [2]; [3])	KRas^G12C-HiBiT (SW1573; 0.5% DMSO) Dmax** (HiBit-KRAS^G12C [1]; SW1573 HiBit-KRas^G12C)	KRas^G12C-HiBiT (MiaPaCa; 0.5% DMSO) DMax (HiBit-KRAS^G12C [2]; MiaPaCa-2 HiBit-KRas^G12C cells, maximum degradation)	Compound
35 to 70%	< 100 nM	> 70%	< 100 nM	–	–	C=C(F)C(=O)N1CCN(c2nc(OCCN3CCC4(CC3)CN(c3cc([C@H](C(=O)N5C[C@H](O)C[C@H]5C(=O)N[C@@H](C)c5ccc(-c6scnc6C)cc5)C(C)C)on3)C4)nc3c(F)c(-c4cc(O)cc5ccccc45)c(Cl)cc23)C[C@@H]1CC#N (atropisomer, axis not shown) [Compound 109, (2S,4R)-1-[(2R)-2-(3-{7-[2-({6-chloro-4-[(3S)-3-(cyanomethyl)-4-(2-fluoroprop-2-enoyl)piperazin-1-yl]-8-fluoro-7-(3-hydroxynaphthalen-1-yl)quinazolin-2-yl}oxy)ethyl]-2,7-diazaspiro[3.5]nonan-2-yl}-1,2-oxazol-5-yl)-3-methylbutanoyl]-4-hydroxy-N-[(1S)-1-[4-(4-methyl-1,3-thiazol-5-yl)phenyl]ethyl]pyrrolidine-2-carboxamide]
> 70%	100 to 1000 nM	> 70%	100 to 1000 nM	–	–	C=C(F)C(=O)N1CCN(c2nc(OCCN3CCC4(CC3)CN(c3cc([C@H](C(=O)N5C[C@H](O)C[C@H]5C(=O)N[C@@H](C)c5ccc(-c6ccnn6C)cc5)C(C)C)on3)C4)nc3c(F)c(-c4cc(O)cc5ccccc45)c(Cl)cc23)C[C@@H]1CC#N (atropisomer, axis not shown) [Compound 112, (2S,4R)-1-[(2R)-2-(3-{7-[2-({6-chloro-4-[(3S)-3-(cyanomethyl)-4-(2-fluoroprop-2-enoyl)piperazin-1-yl]-8-fluoro-7-(3-hydroxynaphthalen-1-yl)quinazolin-2-yl}oxy)ethyl]-2,7-diazaspiro[3.5]nonan-2-yl}-1,2-oxazol-5-yl)-3-methylbutanoyl]-4-hydroxy-N-[(1S)-1-[4-(1-methyl-1H-pyrazol-5-yl)phenyl]ethyl]pyrrolidine-2-carboxamide]
> 70%	< 100 nM	> 70%	100 to 1000 nM	–	–	C=CC(=O)N1CCN(c2nc(OCCN3CCC4(CC3)CN(c3cc([C@H](C(=O)N5C[C@H](O)C[C@H]5C(=O)N[C@@H](C)c5ccc(-c6ccnn6C)cc5)C(C)C)on3)C4)nc3c(F)c(-c4cc(O)cc5ccccc45)c(Cl)cc23)C[C@@H]1CC#N (atropisomer, axis not shown) [Compound 116, (2S,4R)-1-[(2R)-2-(3-{7-[2-({6-chloro-4-[(3S)-3-(cyanomethyl)-4-(prop-2-enoyl)piperazin-1-yl]-8-fluoro-7-(3-hydroxynaphthalen-1-yl)quinazolin-2-yl}oxy)ethyl]-2,7-diazaspiro[3.5]nonan-2-yl}-1,2-oxazol-5-yl)-3-methylbutanoyl]-4-hydroxy-N-[(1S)-1-[4-(1-methyl-1H-pyrazol-5-yl)phenyl]ethyl]pyrrolidine-2-carboxamide]
35 to 70%	< 100 nM	> 70%	< 100 nM	–	–	C=C(F)C(=O)N1CCN(c2nc(OCCN3CCC(F)(COc4cc([C@H](C(=O)N5C[C@H](O)C[C@H]5C(=O)N[C@@H](C)c5ccc(-c6ccnn6C)cc5)C(C)C)on4)CC3)nc3c(F)c(-c4cc(O)cc5ccccc45)c(Cl)cc23)C[C@@H]1CC#N (atropisomer, axis not shown) [Compound 117, (2S,4R)-1-[(2R)-2-[3-({1-[2-({6-chloro-4-[(3S)-3-(cyanomethyl)-4-(2-fluoroprop-2-enoyl)piperazin-1-yl]-8-fluoro-7-(3-hydroxynaphthalen-1-yl)quinazolin-2-yl}oxy)ethyl]-4-fluoropiperidin-4-yl}methoxy)-1,2-oxazol-5-yl]-3-methylbutanoyl]-4-hydroxy-N-[(1S)-1-[4-(1-methyl-1H-pyrazol-5-yl)phenyl]ethyl]pyrrolidine-2-carboxamide]
